Measured values reported in patent US20070155746A1, “NOVEL SUBSTITUTED PYRIDINYLOXY AND PYRIMIDINYLOXY AMIDES USEFUL AS INHIBITORS OF PROTEIN KINASES” (KALYPSYS, INC., priority 2005, published 2007).

Assays:
Assay type in all cases: biochemical
[1] = molecular target: T1, human B-Raf protein kinase (Homo sapiens, UniProt P15056); test: In vitro B-Raf/Mek1 composite kinase assay
T1 construct: GST (N); purchased Upstate Inc. 14-530 (B-Raf); 14-420 (Mek1)
Description: In Vitro B-Raf/Mek1 Composite Kinase Assay
2.5 μl of B-Raf kinase buffer (20 mM MOPS [pH 7.2], 25 mM sodium glycerophosphate, 2 mM EGTA [pH 8.0], 1 mM sodium orthovanadate, 1 mM dithiothreitol, 10 mM MgCl2, 0.03% Brij-35, 0.3 mg/ml bovine serum albumin) containing lng of recombinant, N-terminal GST-tagged human B-Raf protein kinase (Δ1-415, Upstate Inc., cat. #14-530) is dispensed to wells of a 1536 multi-well white solid plate. 60 nl of 100× concentration of test compound in DMSO is dispensed to the well by passive pin transfer and incubated for 15 minutes at room temperature (approx. 22° C.). […] The assay plates are sealed and maintained in a humidified environment. After 2 hours, 2.5 μl of PKLight protein kinase assay reagent (Cambrex, cat. #LT07-501) is dispensed. After an additional 5 minute incubation at room temperature, luminescence activity is measured on a Molecular Devices Analyst multi-mode plate reader or other suitable plate reader. Kinase inhibition results in less ATP depletion, and therefore increased luminescence signal. Negative control activity is measured with DMSO lacking any test compound. The positive control is [N-(3-trifluoromethyl-4-chlorophenyl)-N′-(4-(2-methylcarbamoyl-pyridin-4-yl)oxyphenyl)urea], aka Bay 43-9006. Efficacy is measured as a percentage of positive control activity.

PDGFRβ kinase = molecular target: T2, PDGFRβ kinase (Homo sapiens, UniProt P09619); test: In vitro PDGFRβ kinase assay
T2 construct: purchased Invitrogen Inc. P3082
T2 sequence (P09619 33-1106): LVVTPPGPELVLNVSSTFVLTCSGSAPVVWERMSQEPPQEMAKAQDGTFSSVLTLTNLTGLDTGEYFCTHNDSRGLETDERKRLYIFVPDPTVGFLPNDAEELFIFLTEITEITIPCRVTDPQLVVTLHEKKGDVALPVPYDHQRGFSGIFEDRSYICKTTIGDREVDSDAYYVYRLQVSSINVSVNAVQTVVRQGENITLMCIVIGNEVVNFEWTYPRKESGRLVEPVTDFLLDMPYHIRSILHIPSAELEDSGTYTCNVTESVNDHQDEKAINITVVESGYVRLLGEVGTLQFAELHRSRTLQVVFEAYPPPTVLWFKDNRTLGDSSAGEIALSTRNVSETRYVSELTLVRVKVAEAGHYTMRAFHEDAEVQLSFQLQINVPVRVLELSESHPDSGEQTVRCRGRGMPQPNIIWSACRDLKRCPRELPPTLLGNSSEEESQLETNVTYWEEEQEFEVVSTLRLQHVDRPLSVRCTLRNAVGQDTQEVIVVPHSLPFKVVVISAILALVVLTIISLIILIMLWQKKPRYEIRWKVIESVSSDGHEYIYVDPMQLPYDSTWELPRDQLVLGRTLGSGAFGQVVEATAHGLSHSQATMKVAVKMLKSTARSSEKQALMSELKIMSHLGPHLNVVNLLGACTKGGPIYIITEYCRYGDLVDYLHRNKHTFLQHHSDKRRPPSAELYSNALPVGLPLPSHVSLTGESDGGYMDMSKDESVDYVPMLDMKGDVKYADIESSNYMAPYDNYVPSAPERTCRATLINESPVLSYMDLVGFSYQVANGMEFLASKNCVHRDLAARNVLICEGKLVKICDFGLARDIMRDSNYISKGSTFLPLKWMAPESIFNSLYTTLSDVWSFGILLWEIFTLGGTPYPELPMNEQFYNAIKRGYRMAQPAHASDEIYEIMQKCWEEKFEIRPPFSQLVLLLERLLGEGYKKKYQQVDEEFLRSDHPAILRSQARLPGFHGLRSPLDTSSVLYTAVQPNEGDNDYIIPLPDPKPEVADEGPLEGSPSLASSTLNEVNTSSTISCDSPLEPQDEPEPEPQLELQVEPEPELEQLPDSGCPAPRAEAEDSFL
Description: (§1) In Vitro VEGFR2 and PDGFRP Kinase Assays
(§2) 2.5 μl of ADP Quest assay buffer (DiscoverX Inc., cat. #90-0071) containing 20 ng VEGFR2 kinase (Invitrogen Inc, cat. #PV3660) or 25 ng PDGFRβ kinase (Invitrogen Inc., cat. #P3082) is dispensed to wells of a 1536 multi-well, black solid plate. 60 nl of 100× concentration of test compound in DMSO is dispensed to the well by passive pin transfer and incubated for 10 minutes at room temperature (approx. 22° C.). 2.5 μl of ADP Quest assay buffer containing 0.25 μg of poly Glu:Tyr (4:1) substrate peptide (Upstate Inc., cat. #12-440) and 60 μM ATP is then dispensed and the kinase reaction allowed to incubate at 30° C. for 2 hours. The assay plates are sealed and maintained in a humidified environment. After the 2 hour incubation, 2 μl of ADP Quest assay reagent A, followed by 2 μl of assay reagent B, is added. After an additional 30 minute incubation at room temperature, fluorescence intensity is measured on a Molecular Devices Aquest multi-mode plate reader or other suitable plate reader (fluorescence excitation filter: 530/25 [Peak(nm)/FWHM passband(nm)]; dichroic beamsplitter: 561 nm longpass; fluorescence emission filter: 580/10 [Peak(nm)/FWHM passband(nm)]. The assay measures the conversion of a non-fluoresecent molecule to fluorescent resorufin, which correlates with kinase activity. Negative control activity is measured with DMSO lacking any test compound. The positive control is [N-(3-trifluoromethyl-4-chlorophenyl)-N′-(4-(2-methylcarbamoyl-pyridin-4-yl)oxyphenyl)urea], aka Bay 43-9006. Efficacy is measured as a percentage of positive control activity.

VEGFR2 kinase = molecular target: T3, VEGFR2 kinase (Homo sapiens, UniProt P35968); test: In vitro VEGFR2 kinase assay
T3 construct: purchased Invitrogen Inc PV3660
T3 sequence (P35968 20-1356): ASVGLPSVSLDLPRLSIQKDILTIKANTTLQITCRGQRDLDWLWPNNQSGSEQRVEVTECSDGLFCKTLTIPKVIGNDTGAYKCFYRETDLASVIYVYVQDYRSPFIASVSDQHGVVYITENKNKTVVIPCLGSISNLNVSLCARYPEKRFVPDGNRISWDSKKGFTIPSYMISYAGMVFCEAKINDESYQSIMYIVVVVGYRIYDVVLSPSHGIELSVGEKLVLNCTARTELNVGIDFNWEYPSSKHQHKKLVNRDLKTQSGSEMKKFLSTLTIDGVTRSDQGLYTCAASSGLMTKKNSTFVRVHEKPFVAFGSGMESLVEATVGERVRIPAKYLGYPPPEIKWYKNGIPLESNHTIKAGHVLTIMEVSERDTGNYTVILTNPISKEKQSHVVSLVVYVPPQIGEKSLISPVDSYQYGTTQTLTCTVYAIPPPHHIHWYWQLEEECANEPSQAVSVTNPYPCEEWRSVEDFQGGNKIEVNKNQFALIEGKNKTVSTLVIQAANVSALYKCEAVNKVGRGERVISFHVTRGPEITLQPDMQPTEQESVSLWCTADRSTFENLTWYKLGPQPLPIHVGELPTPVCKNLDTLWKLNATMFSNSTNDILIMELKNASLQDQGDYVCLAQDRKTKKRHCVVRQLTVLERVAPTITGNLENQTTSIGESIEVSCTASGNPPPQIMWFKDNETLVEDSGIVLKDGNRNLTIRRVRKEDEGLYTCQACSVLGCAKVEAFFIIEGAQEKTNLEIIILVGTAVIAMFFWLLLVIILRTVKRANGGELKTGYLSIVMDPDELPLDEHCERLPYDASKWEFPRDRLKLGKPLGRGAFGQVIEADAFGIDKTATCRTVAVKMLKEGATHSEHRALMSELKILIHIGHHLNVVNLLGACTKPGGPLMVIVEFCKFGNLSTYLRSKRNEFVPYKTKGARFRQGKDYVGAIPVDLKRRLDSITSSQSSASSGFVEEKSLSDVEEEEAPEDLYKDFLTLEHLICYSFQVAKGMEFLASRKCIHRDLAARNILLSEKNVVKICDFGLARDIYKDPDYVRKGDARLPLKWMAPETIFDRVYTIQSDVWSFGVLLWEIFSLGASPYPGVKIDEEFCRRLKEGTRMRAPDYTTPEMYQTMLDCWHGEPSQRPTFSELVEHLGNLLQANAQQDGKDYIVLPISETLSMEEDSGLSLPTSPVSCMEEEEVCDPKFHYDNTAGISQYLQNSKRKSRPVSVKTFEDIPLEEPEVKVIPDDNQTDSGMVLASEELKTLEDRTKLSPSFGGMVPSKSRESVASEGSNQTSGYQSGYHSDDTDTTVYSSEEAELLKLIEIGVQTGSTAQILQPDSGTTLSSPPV
Description: as §1, §2

T1 sequence (P15056 416-766): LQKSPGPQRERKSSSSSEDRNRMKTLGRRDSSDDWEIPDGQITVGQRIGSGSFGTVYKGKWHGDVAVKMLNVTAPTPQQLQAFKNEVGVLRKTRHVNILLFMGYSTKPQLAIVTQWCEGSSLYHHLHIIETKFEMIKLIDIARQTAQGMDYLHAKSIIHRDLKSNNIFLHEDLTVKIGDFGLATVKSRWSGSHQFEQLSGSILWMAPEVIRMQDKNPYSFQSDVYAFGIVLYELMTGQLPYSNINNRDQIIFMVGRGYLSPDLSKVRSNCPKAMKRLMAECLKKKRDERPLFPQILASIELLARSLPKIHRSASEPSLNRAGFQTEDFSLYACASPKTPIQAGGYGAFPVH

| SMILES | IC50 [1] | IC50 (PDGFRβ kinase) | IC50 (VEGFR2 kinase) |
| --- | --- | --- | --- |
| Cn1cc(-c2cc(Oc3cccc(NC(=O)c4cc(OC(F)(F)F)cc(OC(F)(F)F)c4)c3)ccn2)cn1 [Example 41, N-(3-(2-(1-methyl-1H-pyrazol-4-yl)pyridin-4-yloxy)phenyl)-3,5-bis(trifluoromethoxy)benzamide] | > 10 µM | > 10 µM | > 10 µM |
| Cn1cc(-c2cc(Oc3cccc(NC(=O)c4cccc(C(F)(F)F)c4)c3)ccn2)cn1 [Example 44, N-(3-(2-(1-Methyl-1H-pyrazol-4-yl)pyridin-4-yloxy)phenyl)-3-(trifluoromethyl)benzamide] | > 10 µM | > 10 µM | > 10 µM |
| Cn1cc(-c2cc(Oc3cccc(NC(=O)c4ccccc4C(=O)c4ccccc4)c3)ccn2)cn1 [Example 49, 2-Benzoyl-N-(3-(2-(1-methyl-1H-pyrazol-4-yl)pyridin-4-yloxy)phenyl)benzamide] | > 10 µM | ≤ 10 µM | ≤ 10 µM |
| Cn1cc(-c2cc(Oc3cccc(NC(=O)c4cccc(C(=O)c5ccccc5)c4)c3)ccn2)cn1 [Example 50, 3-Benzoyl-N-(3-(2-(1-methyl-1H-pyrazol-4-yl)pyridin-4-yloxy)phenyl)benzamide] | > 10 µM | > 10 µM | ≤ 10 µM |
| Cn1cc(-c2cc(Oc3cccc(NC(=O)c4cccc5ccccc45)c3)ccn2)cn1 [Example 52, N-(3-(2-(1-Methyl-1H-pyrazol-4-yl)pyridin-4-yloxy)phenyl)-1-naphthamide] | > 10 µM | > 10 µM | > 10 µM |
| Cn1cc(-c2cc(Oc3cccc(NC(=O)c4ccc5ccccc5c4)c3)ccn2)cn1 [Example 53, N-(3-(2-(1-Methyl-1H-pyrazol-4-yl)pyridin-4-yloxy)phenyl)-2-naphthamide] | > 10 µM | > 10 µM | > 10 µM |
| Cn1cc(-c2cc(Oc3cccc(NC(=O)c4cccc(Oc5ccccc5)c4)c3)ccn2)cn1 [Example 55, N-(3-(2-(1-Methyl-1H-pyrazol-4-yl)pyridin-4-yloxy)phenyl)-3-phenoxybenzamide] | > 10 µM | > 10 µM | ≤ 10 µM |
| Cn1cc(-c2cc(Oc3cccc(NC(=O)c4cccc(-n5cccc5)c4)c3)ccn2)cn1 [Example 58, N-(3-(2-(1-Methyl-1H-pyrazol-4-yl)pyridin-4-yloxy)phenyl)-3-(1H-pyrrol-1-yl)benzamide] | > 10 µM | > 10 µM | > 10 µM |
| Cn1cc(-c2cc(Oc3cccc(NC(=O)c4ccc5c(c4)OCO5)c3)ccn2)cn1 [Example 61, N-(3-(2-(1-Methyl-1H-pyrazol-4-yl)pyridin-4-yloxy)phenyl)benzo[d][1,3]dioxole-5-carboxamide] | ≤ 10 µM | > 10 µM | > 10 µM |
| Cn1cc(-c2cc(Oc3cccc(NC(=O)c4ccc5c(c4)OC(F)(F)O5)c3)ccn2)cn1 [Example 62, 2,2-Difluoro-N-(3-(2-(1-methyl-1H-pyrazol-4-yl)pyridin-4-yloxy)phenyl)benzo[d][1,3]dioxole-5-carboxamide] | > 10 µM | > 10 µM | > 10 µM |
| Cn1cc(-c2cc(Oc3cccc(NC(=O)c4ccc5c(c4)C(=O)OC5=O)c3)ccn2)cn1 [Example 63, N-(3-(2-(1-Methyl-1H-pyrazol-4-yl)pyridin-4-yloxy)phenyl)-1,3-dioxo-1,3-dihydroisobenzofuran-5-carboxamide] | ≤ 10 µM | ≤ 10 µM | > 10 µM |
| Cn1cc(-c2cc(Oc3cccc(NC(=O)c4ccc5[nH]cnc5c4)c3)ccn2)cn1 [Example 64, N-(3-(2-(1-Methyl-1H-pyrazol-4-yl)pyridin-4-yloxy)phenyl)-1H-benzo[d]imidazole-5-carboxamide] | ≤ 10 µM | > 10 µM | ≤ 10 µM |
| Cn1cc(-c2cc(Oc3cccc(NC(=O)c4ccc5[nH]nnc5c4)c3)ccn2)cn1 [Example 65, N-(3-(2-(1-Methyl-1H-pyrazol-4-yl)pyridin-4-yloxy)phenyl)-1H-benzo[d][1,2,3]triazole-5-carboxamide] | ≤ 10 µM | > 10 µM | ≤ 10 µM |

The remaining lines, values ahead:

| IC50 [1] | IC50 (PDGFRβ kinase) | IC50 (VEGFR2 kinase) | SMILES |
| --- | --- | --- | --- |
| ≤ 10 µM | > 10 µM | ≤ 10 µM | Cn1cc(-c2cc(Oc3cccc(NC(=O)c4ccc(OC(F)(F)F)cc4OC(F)(F)F)c3)ccn2)cn1 [Example 42, N-(3-(2-(1-Methyl-1H-pyrazol-4-yl)pyridin-4-yloxy)phenyl)-2,4-bis(trifluoromethoxy)benzamide] |
| ≤ 10 µM | ≤ 10 µM | ≤ 10 µM | Cn1cc(-c2cc(Oc3cccc(NC(=O)c4ccccc4C(F)(F)F)c3)ccn2)cn1 [Example 43, N-(3-(2-(1-Methyl-1H-pyrazol-4-yl)pyridin-4-yloxy)phenyl)-2-(trifluoromethyl)benzamide] |
| ≤ 10 µM | > 10 µM | > 10 µM | Cn1cc(-c2cc(Oc3cccc(NC(=O)c4ccc(C(F)(F)F)cc4)c3)ccn2)cn1 [Example 45, N-(3-(2-(1-Methyl-1H-pyrazol-4-yl)pyridin-4-yloxy)phenyl)-4-(trifluoromethyl)benzamide] |
| ≤ 10 µM | > 10 µM | > 10 µM | Cn1cc(-c2cc(Oc3cccc(NC(=O)c4cccc(C#N)c4)c3)ccn2)cn1 [Example 46, 3-Cyano-N-(3-(2-(1-methyl-1H-pyrazol-4-yl)pyridin-4-yloxy)phenyl)benzamide] |
| ≤ 10 µM | > 10 µM | > 10 µM | Cn1cc(-c2cc(Oc3cccc(NC(=O)c4ccc(C#N)cc4)c3)ccn2)cn1 [Example 47, 4-Cyano-N-(3-(2-(1-methyl-1H-pyrazol-4-yl)pyridin-4-yloxy)phenyl)benzamide] |
| ≤ 10 µM | > 10 µM | ≤ 10 µM | Cn1cc(-c2cc(Oc3cccc(NC(=O)c4ccc(C(=O)c5ccccc5)cc4)c3)ccn2)cn1 [Example 51, 4-Benzoyl-N-(3-(2-(1-methyl-1H-pyrazol-4-yl)pyridin-4-yloxy)phenyl)benzamide] |
| ≤ 10 µM | ≤ 10 µM | > 10 µM | Cn1cc(-c2cc(Oc3cccc(NC(=O)c4ccccc4Oc4ccccc4)c3)ccn2)cn1 [Example 54, N-(3-(2-(1-Methyl-1H-pyrazol-4-yl)pyridin-4-yloxy)phenyl)-2-phenoxybenzamide] |
| ≤ 10 µM | > 10 µM | ≤ 10 µM | Cn1cc(-c2cc(Oc3cccc(NC(=O)c4ccc(Oc5ccccc5)cc4)c3)ccn2)cn1 [Example 56, N-(3-(2-(1-Methyl-1H-pyrazol-4-yl)pyridin-4-yloxy)phenyl)-4-phenoxybenzamide] |
| ≤ 10 µM | ≤ 10 µM | ≤ 10 µM | Cn1cc(-c2cc(Oc3cccc(NC(=O)c4ccccc4-n4cccc4)c3)ccn2)cn1 [Example 57, N-(3-(2-(1-Methyl-1H-pyrazol-4-yl)pyridin-4-yloxy)phenyl)-2-(1H-pyrrol-1-yl)benzamide] |
| ≤ 10 µM | > 10 µM | > 10 µM | Cn1cc(-c2cc(Oc3cccc(NC(=O)c4ccc(-n5cccc5)cc4)c3)ccn2)cn1 [Example 59, N-(3-(2-(1-Methyl-1H-pyrazol-4-yl)pyridin-4-yloxy)phenyl)-4-(1H-pyrrol-1-yl)benzamide] |
| ≤ 10 µM | > 10 µM | > 10 µM | Cn1cc(-c2cc(Oc3cccc(NC(=O)c4ccc(-n5ccnc5)cc4)c3)ccn2)cn1 [Example 60, 4-(1H-Imidazol-1-yl)-N-(3-(2-(1-methyl-1H-pyrazol-4-yl)pyridin-4-yloxy)phenyl)benzamide] |
